Assay results: US10774064B2 (Cadent Therapeutics, Inc., priority 2016, dated 2020)

molecular target: T1, small-conductance Ca2+-activated K+ channels (SK channels, subtype 2) (Homo sapiens, UniProt Q9H2S1); test: whole-cell patch-clamp of ionic current through SK2 channels in HEK293 cells (SC100); assay type: cell-based; details: concentration that increases the basal current by 100%; HEK293 cells expressing SK2 channels
T1 construct: expressed in transfected cells; host or cells: HEK293
Summary of the method: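 SC100, the concentration doubling basal current (a 100% increase), was taken from SK2 currents recorded by whole-cell patch-clamp in SK2-expressing HEK293 cells.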

SC100 | SMILES
+ (+ means >1 uM) | FCc1ccn(-c2nc(NC3CCC(F)(F)CC3)cc(OC3COC3)n2)n1 [Compound 285, N-(4,4-difluorocyclohexyl)-2-(3-(fluoromethyl)-1H-pyrazol-1-yl)-6-(oxetan-3-yloxy)pyrimidin-4-amine]
++ (++ means 200 nM-1000 nM) | CC(C)(C)C(=O)N1CC(Oc2cc(NC3CCC(F)(F)CC3)nc(-n3ccc(CF)n3)n2)C1 [Compound 293, 1-(3-((6-((4,4-difluorocyclohexyl)amino)-2-(3-(fluoromethyl)-1H-pyrazol-1-yl)pyrimidin-4-yl)oxy)azetidin-1-yl)-2,2-dimethylpropan-1-one]
++ (++ means 200 nM-1000 nM) | FCc1ccn(-c2nc(NC3CCC(F)(F)CC3)cc(N3CC4(COC4)C3)n2)n1 [Compound 338, N-(4,4-difluorocyclohexyl)-2-(3-(fluoromethyl)-1H-pyrazol-1-yl)-6-(2-oxa-6-azaspiro[3.3]heptan-6-yl)pyrimidin-4-amine]
+ (+ means >1 uM) | Cc1cc(C)n(-c2cc(NCc3nnc(C)o3)cc(NC3CCC(F)(F)CC3)n2)n1 [Compound 252, N2-(4,4-difluorocyclohexyl)-6-(3,5-dimethyl-1H-pyrazol-1-yl)-N4-((5-methyl-1,3,4-oxadiazol-2-yl)methyl)pyridine-2,4-diamine]
+ (+ means >1 uM) | FCc1ccn(-c2nc(NC3CCC(F)(F)CC3)cc(N3CCOCC3)n2)n1 [Compound 280, N-(4,4-difluorocyclohexyl)-2-(3-(fluoromethyl)-1H-pyrazol-1-yl)-6-morpholinopyrimidin-4-amine]
++ (++ means 200 nM-1000 nM) | Cc1cn(-c2nc(NC3CCC(F)(F)CC3)cc(OC3COC3)n2)nc1CF [Compound 304, N-(4,4-difluorocyclohexyl)-2-(3-(fluoromethyl)-4-methyl-1H-pyrazol-1-yl)-6-(oxetan-3-yloxy)pyrimidin-4-amine]
+ (+ means >1 uM) | Cc1cc(C)n(-c2nc(NC3CCC(F)(F)C3)cc(C(F)(F)F)n2)n1 (stereo not drawn) [Compound 167, N-(3,3-difluorocyclopentyl)-2-(3,5-dimethyl-1H-pyrazol-1-yl)-6-(trifluoromethyl)pyrimidin-4-amine]
+ (+ means >1 uM) | Cc1cc(C)n(-c2nc(N[C@H]3CCCC(F)(F)C3)cc([C@@H](C)O)n2)n1 (single isomer, unassigned) [Compound 354]
++ (++ means 200 nM-1000 nM) | COC(=O)N1CC(Oc2cc(NC3CCC(F)(F)CC3)nc(-n3cc(C)c(C(F)F)n3)n2)C1 [Compound 318, methyl 3-((6-((4,4-difluorocyclohexyl)amino)-2-(3-(difluoromethyl)-4-methyl-1H-pyrazol-1-yl)pyrimidin-4-yl)oxy)azetidine-1-carboxylate]
++ (++ means 200 nM-1000 nM) | COC(=O)N1CC(Oc2cc(NC3CCC(F)(F)CC3)nc(-c3nc(C(F)F)cs3)n2)C1 [Compound 330, methyl 3-((6-((4,4-difluorocyclohexyl)amino)-2-(4-(difluoromethyl)thiazol-2-yl)pyrimidin-4-yl)oxy)azetidine-1-carboxylate]

same assay, conditions: whole-cell patch-clamp, HEK293 cells expressing SK2 channels; concentration that increases the basal current by 100%

SMILES | SC100 (μM) | SC100
COCc1cc(NC2CC(F)(F)C2)nc(-n2nc(C)cc2C)n1 [IN11108-038-P1, N-(3,3-difluorocyclobutyl)-2-(3,5-dimethyl-1H-pyrazol-1-yl)-6-(methoxymethyl)pyrimidin-4-amine] | + (+ means >1 uM) | 
FCc1ccn(-c2nc(NC3CC=CCC3)cc(N3CCOCC3)n2)n1 (stereo not drawn) | + (+ means >1 uM) | 
COCc1cc(NC2CCC(F)(F)CC2)nc(-n2ccc(C)n2)n1 [IN11053-007-P1, N-(4,4-difluorocyclohexyl)-6-(methoxymethyl)-2-(3-methyl-1H-pyrazol-1-yl)pyrimidin-4-amine] | + (+ means >1 uM) | 
COC(=O)N1CCC(Oc2cc(NC3CCC(F)(F)CC3)nc(-c3nc(C)cs3)n2)C1 (stereo not drawn) [IN10973-025-P1] |  | 1 µM
COc1cc(NC2CCCOC2)nc(-c2nc(C)cs2)n1 (stereo not drawn) [IN11106-027-P1] | + (+ means >1 uM) | 
Cc1ccn(-c2nc(N3CCCCCC3)cc(N3CCOC(CO)C3)n2)n1 (stereo not drawn) [IN10882-068-P1] | + (+ means >1 uM) | 
Cc1csc(-c2cc(OCc3nnc(C)o3)cc(NC3CCC(F)(F)CC3)n2)n1 [NSSy5694] | +++ (+++ means <200 nM) | 
Cc1ccn(-c2nc(NCC3CCOC3)cc(C(C)O)n2)n1 (stereo not drawn) [IN10880-058-P1] | + (+ means >1 uM) | 
Cc1csc(-c2nc(NC3CCC(F)(F)CC3)cc(N3CCCOCC3)n2)n1 [IN10864-034.P1] | +++ (+++ means <200 nM) | 
Cc1cc(C)n(-c2cc(NC3CCC(F)(F)CC3)nc(N3CCOCC3)c2)n1 [IN10991-067-P1, N-(4,4-difluorocyclohexyl)-4-(3,5-dimethyl-1H-pyrazol-1-yl)-6-morpholinopyridin-2-amine] | + (+ means >1 uM) | 
CNCc1cc(NC2CCC(F)(F)CC2)nc(-c2nc(C)cs2)n1 [IN11059-096-P1, N-(4,4-difluorocyclohexyl)-6-((methylamino)methyl)-2-(4-methylthiazol-2-yl)pyrimidin-4-amine] | + (+ means >1 uM) | 
Cc1csc(-c2nc(NC3CCC(F)(F)CC3)cc(C(C)S(C)(=O)=O)n2)n1 (stereo not drawn) [IN10973-053-P1, N-(4,4-difluorocyclohexyl)-6-(1-(methylsulfonyl)ethyl)-2-(4-methylthiazol-2-yl)pyrimidin-4-amine] | + (+ means >1 uM) | 

The next lines start with the values.

SC100 (μM) | SC100 | SMILES
++ (++ means 200 nM-1000 nM) |  | Cc1cc(NC2CCC(F)(F)CC2)nc(-n2ccc(OC(F)F)n2)n1 [NSSy7059, N-(4,4-difluorocyclohexyl)-2-(3(difluoromethoxy)-1H-pyrazol-1-yl)-6-methylpyrimidin-4-amine]
+++ (+++ means <200 nM) |  | COC(=O)N1CC(Oc2cc(NC34CC5CC(CC(C5)C3)C4)nc(-n3ccc(C)n3)n2)C1 [NSSy6097]
+ (+ means >1 uM) |  | Cc1cc(C)n(-c2nc(N3CCOCC3)cc(N(O)C3CCC(F)(F)CC3)n2)n1 [NSSy6386]
+++ (+++ means <200 nM) |  | CC(=O)N1CCC(Oc2cc(-n3ccc(C)n3)nc(NC3CCC(F)(F)CC3)n2)CC1 [NSSy6914]
+ (+ means >1 uM) |  | COC(=O)N1CC(Oc2cc(NC3CCC(F)(F)CC3)nc(-c3nc(CO)cs3)n2)C1 [NSSy6049, methyl 3-((6-((4,4-difluorocyclohexyl)amino)-2-(4-(hydroxymethyl)thiazol-2-yl)pyrimidin-4-yl)oxy)azetidine-1-carboxylate]
+ (+ means >1 uM) |  | CC(=O)c1ccn(-c2nc(NC3CCC(F)(F)CC3)cc(N3CCOCC3)n2)n1 [IN11243-031-P1]
++ (++ means 200 nM-1000 nM) |  | Cc1nn(-c2nc(NC3CCC(F)(F)CC3)cc(N3CCOCC3)n2)c(C)c1F [NSSy7011]
++ (++ means 200 nM-1000 nM) |  | COCc1cc(NC2CCC(F)(F)CC2)nc(-n2nc(C)cc2C)c1 [NSSy6861, N-(4,4-difluorocyclohexyl)-6-(3,5-dimethyl-1H-pyrazol-1-yl)-4-(methoxymethyl)pyridin-2-amine]
++ (++ means 200 nM-1000 nM) |  | Cc1csc(-c2nc(NC3CCC(F)(F)CC3)cc(N3CC4CCC(C3)O4)n2)n1 [NSSy6129]
+ (+ means >1 uM) |  | Cc1ccn(-c2cc(N3CCOCC3)cc(C(=O)c3ccc(F)cc3)n2)n1 [NSSy6470, (4-fluorophenyl) (6-(3-methyl-1H-pyrazol-1-yl)-4-morpholinopyridin-2-yl) methanone]
++ (++ means 200 nM-1000 nM) |  | Cc1csc(-c2nc(NC3CCC(F)(F)CC3)cc(N3CCN(C)C(=O)C3)n2)n1 [NSSy6093]
+ (+ means >1 uM) |  | CC(=O)N1CCN(c2cc(-n3nccc3C3CC3)nc(NC3CCC(F)(F)CC3)n2)CC1 [NSSy6957, 1-(4-(6-(5-cyclopropyl-1H-pyrazol-1-yl)-2-((4,4-difluorocyclohexyl)amino)pyrimidin-4-yl)piperazin-1-yl)ethan-1-one]
+ (+ means >1 uM) |  | FC1(F)CCC(Nc2cc(N3CCOCC3)nc(-c3nccs3)n2)CC1 [NSSy6152]
++ (++ means 200 nM-1000 nM) |  | Cc1csc(-c2nc(NC3CCC(F)(F)CC3)cc(C(C)(C)C)n2)n1 [IN11220-039-P1, 6-(tert-butyl)-N-(4,4-difluorocyclohexyl)-2-(4-methylthiazol-2-yl)pyrimidin-4-amine]
++ (++ means 200 nM-1000 nM) |  | Cc1ccn(-c2nc(NC3CCC(F)(F)CC3)cc(N(C)C3CC3)n2)n1 [NSSy6272]
+++ (+++ means <200 nM) |  | Cc1csc(-c2nc(NC3CCC(F)(F)CC3)cc(OC3CN(C(=O)C(C)C)C3)n2)n1 [NSSy5629]
+++ (+++ means <200 nM) |  | Cc1ccn(-c2cc(COc3ccc(C#N)nn3)cc(NC3CCC(F)(F)CC3)n2)n1 [NSSy6417]
+ (+ means >1 uM) |  | Cc1ccnn1-c1cc(N2CC3(COC3)C2)nc(NC2CCC(F)(F)CC2)n1 [NSSy6523]
+ (+ means >1 uM) |  | Cc1csc(-c2nc(NC3CC=CCC3)cc(N3CCOCC3)n2)n1 (stereo not drawn) [NSSy5703, N-(cyclohex-3-en-1-yl)-2-(4-methylthiazol-2-yl)-6-morpholinopyrimidin-4-amine]
+++ (+++ means <200 nM) |  | CC(F)c1ccn(-c2nc(NC3CCC(F)(F)CC3)cc(N3CCOCC3)n2)n1 (stereo not drawn) [IN11243-041-P1]
++ (++ means 200 nM-1000 nM) |  | COC(=O)NCc1cc(NC2CCC(F)(F)CC2)nc(-n2ccc(C)n2)c1 [NSSy5635]
++ (++ means 200 nM-1000 nM) |  | Cc1csc(-c2nc(NC3CCC(F)(F)CC3)cc(-c3ccccc3)n2)n1 [IN11218-030-P1]
++ (++ means 200 nM-1000 nM) |  | COC(=O)N1CC(Oc2cc(NC3CC=C(C)CC3)nc(-c3nc(C)cs3)n2)C1 (stereo not drawn) [NSSy5854, methyl 3-((6-((4-methylcyclohex-3-en-1-yl)amino)-2-(4-methylthiazol-2-yl)pyrimidin-4-yl)oxy)azetidine-1-carboxylate]
